According to patent publication US9556164B2, “Salts of Dasatinib in crystalline form” (BASF SE, priority 2013, dated 2017):

Settings: DVS at 25° C., humidity program 50% r.h. to 95% r.h. and back to 50% r.h.
Method: Dynamic vapor sorption: DVS is performed at 25° C. with an SPS11-100n “Sorptions Prüfsystem” of Projekt Messtechnik, D-89077 Ulm (Germany). About 25 mg of sample is put into an aluminum sample pan. Humidity program: 50% relative humidity (r.h.) for 2 hours, 50% r.h. to 95% r.h. (humidity change rate 5% per hour), 95% r.h. for 5 hours, 95% r.h. to 50% r.h. (humidity change rate 5% per hour), 50% r.h. for 2 hours.

## Cc1nc(Nc2ncc(C(=O)Nc3c(C)cccc3Cl)s2)cc(N2CCN(CCO)CC2)n1.O=C1NS(=O)(=O)c2ccccc21 [Example 5, Dasatinib saccharinate (hydrate)]
  hygroscopicity by DVS: not hygroscopic
